The source of these data is patent publication US20230136562A1, “SPIROUREA DERIVATIVES” (Idorsia Pharmaceuticals Ltd, priority 2020, published 2023).

SMILES strings stand for the structures. Like-named read-outs stand apart in the source and are kept apart here.

In this assay the test system is primary neuronal cultures from embryonic rat brains. Briefly: Rat oscillation assay (FLIPR, neuronal calcium oscillations). It counts as cell-based. Here is the method: A) Rat Oscillation Assay:
This assay is a functional phenotypic assay designed to mimic epileptic seizures using primary neuronal cultures from embryonic rat brains, which form a functional neuronal network that generate synchronized intracellular calcium concentration oscillations when cultured at high density in 384-well plate. The epileptic phenotype is induced by incubating the neurons in magnesium-free assay buffer, that results in increased probability of NMDA receptor activation, leading to an increased frequency and amplitude of intracellular calcium oscillations. Once neurons are incubated with the calcium indicator dye Fluo-8 AM (Tebu-bio), neuronal calcium oscillations can be monitored in real time using FLIPR® Tetra (fluorometric plate reader, Molecular Devices). With these recordings, the effect of anti-epileptic drugs can be quantified. The anti-epileptic effect of compounds, which activate directly or indirectly the Kv7 channels can be modulated by the Kv7 channel blocker XE-991. The assay was performed as described previously (Pacico N, Mingorance-Le Meur A. New In Vitro Phenotypic Assay for Epilepsy: Fluorescent Measurement of Synchronized Neuronal Calcium Oscillations. PLoS ONE 9(1) 2014) with modifications described hereafter.
Animal care followed standard procedures in accordance with swiss institutional guidelines. Dissociated neuronal cultures were obtained from cerebral cortices of embryonic Wistar rats at embryonic stage E18 (Charles River). The uterine horns were removed by caesarian surgery from deeply anesthetized rats (Isofurane) and sacrificed by decapitation. The embryos were decapitated by closing forceps. The brains were isolated and dissected one by one in ice-cold PBS (Life Technologies) under optical control using a binocular. Meninges, olfactory bulbs, and basal ganglia were removed. Cortical hemispheres (still including the hippocampus) were cut in small pieces with tweezers and placed on ice in pre-chilled Hibernate-E medium (Life technology). The hemispheres were then incubated in 10 mL of Hibernate-E containing 15 U/mL papain (Worthington) for 25 min at 30° C. with gentle mixing every 10 min. Genomic DNA was then digested by prolonging the incubation during 10 min at 37° C. in presence of 4 U/mL rDNase I (Ambion). The obtained suspension was then centrifuged at 800 g for 5 min and the cell pellet was resuspended in 2 mL Hibernate-E and gently dissociated by pipetting up and down 10 times with a plastic Pasteur pipette resulting in a homogenous cell suspension. This suspension was immediately filtered through a 70 µm cell strainer (MACS® SmartStrainer, Miltenyi), collected in 10 mL Hibernate-E and centrifuged at 800 g for 5 min. The cell pellet was resuspended in Neurobasal medium, supplemented with 2% B-27, 0.5 mM Glutamax-I, 100 U/mL penicillin, 100 µg/mL streptomycin (Life Technologies) and diluted at the final concentration of 300′000 cells/mL. One day before plating the cells, 384-well plates were coated with 25 μL/well of 0.1% poly-L-lysine solution (Sigma), incubated overnight at 37° C., washed two times with sterile distilled water and allowed to dry at room temperature for >2 h. The neurons were seeded at a density of 15′000 cells/well in 50 μL/well in a 384-well black, clear-bottomed plates (Corning) and subsequently maintained in an incubator at 37° C., 5% CO2 and 95% humidity for 8 to 10 days. After 3 and 7 days, 40% of media was renewed under sterile conditions.
Protocol Rat Oscillation Assay
Neurons seeded in the assay plates were washed with Hank's balanced salt solution (HBSS) devoid of Ca^2+ and Mg^2+, supplemented with 20 mM HEPES (Life Technologies) and 2 mM CaCl2 (Sigma), pH 7.4 (hereafter called Assay buffer) using a Biotek EL406 plate washer. Neurons were loaded with 1 μM Fluo-8 AM in Assay buffer for 15 min at 37° C., 5% CO2. […]

The mark [1] stands for this setting: Rattus norvegicus, 20 min, AUC of fluorescence measured 20 min after compound addition, read-out: FLIPR: IC50 [nM] 20 min.
Where [2] appears, read: Rattus norvegicus, Acute phase, ratio of AUC fluorescence before and after compound addition, read-out: FLIPR: IC50 [nM] acute.
Where [3] appears, read: Acute phase, ratio of AUC fluorescence before and after compound addition, read-out: FLIPR: IC50 [nM] acute.
The mark [4] stands for this setting: AUC of fluorescence measured 20 min after compound addition, read-out: FLIPR: IC50 [nM] 20 min.

In the case of `O=C(NCc1cccc(C(F)(F)F)c1F)NC1CC2(CCC2)C1` [Example 12, 1-(2-Fluoro-3-trifluoromethyl-benzyl)-3-spiro[3.3]hept-2-yl-urea], the IC50 under setting [1] was 55 nM and the IC50 under setting [2] is 36 nM.

Turning to `Cc1ccc(CNC(=O)NC2CC3(CCC3)C2)cc1OCC(F)(F)F` [Example 109, 1-[4-Methyl-3-(2,2,2-trifluoro-ethoxy)-benzyl]-3-spiro[3.3]hept-2-yl-urea], the IC50 runs as follows: under setting [1], 262 nM; under setting [2], 200 nM.

With `Cc1nc(OCC(F)(F)F)cc(C(CO)NC(=O)NC2CC3(CCC3)C2)n1` (racemic) [Example 82, (±)-1-{2-Hydroxy-1-[2-methyl-6-(2,2,2-trifluoro-ethoxy)-pyrimidin-4-yl]-ethyl}-3-spiro[3.3]hept-2-yl-urea], the IC50 came out at 59 nM under setting [1] and 66 nM under setting [2].

Consider `O=C(NCc1cccc(C(F)(F)F)c1)NC1CC2(C1)CC2(F)F` (single isomer, unassigned) [Example 5, 1-(1,1-Difluoro-spiro[2.3]hex-5-yl)-3-(3-trifluoromethyl-benzyl)-urea], for which the IC50 was determined as 82 nM under setting [3] and 156 nM under setting [1].

Consider `CC(Oc1ccnc(CNC(=O)NC2CC3(CCC3)C2)c1)C(F)(F)F` (racemic) [Example 117, (±)-1-Spiro[3.3]hept-2-yl-3-[4-(2,2,2-trifluoro-1-methyl-ethoxy)-pyridin-2-ylmethyl]-urea], for which the IC50 reads like this: under setting [1], 286 nM; under setting [2], 195 nM.

Turning to `CN(C)CC(Oc1cc(CNC(=O)NC2CC3(CCC3)C2)ccn1)C(F)(F)F` (racemic) [Example 106, (±)-1-[2-(1-Dimethylaminomethyl-2,2,2-trifluoro-ethoxy)-pyridin-4-ylmethyl]-3-spiro[3.3]hept-2-yl-urea], the IC50 under setting [1] is 757 nM and the IC50 under setting [2] stood at 535 nM.

For the molecule `O=C(NCc1cccc(C(F)(F)F)c1)NC1CC2(C1)CC(F)(F)C2` [Example 6, 1-(6,6-Difluoro-spiro[3.3]hept-2-yl)-3-(3-trifluoromethyl-benzyl)-urea], the IC50 is, setting by setting: under setting [1], 112 nM; under setting [2], 62 nM.

For `CC(NC(=O)NC1CC2(CC2)C1)c1cccc(OC(F)F)c1` (racemic) [Example 124, (±)-1-[1-(3-Difluoromethoxy-phenyl)-ethyl]-3-spiro[2.3]hex-5-yl-urea], the IC50 turned out to be 280 nM under setting [1] and 69 nM under setting [2].

As to `CC(Oc1cccc(C2(NC(=O)NC3CC4(CCC4)C3)CC2)c1)C(F)(F)F` (single isomer, unassigned) [Example 169, 1-Spiro[3.3]hept-2-yl-3-{1-[3-(2,2,2-trifluoro-1-methyl-ethoxy)-phenyl]-cyclopropyl}-urea], the IC50 is 20 nM under setting [4] and 42 nM under setting [2].

For the molecule `CC(NC(=O)NC1CC2(CCC2)C1)c1ccnc(OCC(F)(F)F)c1` (racemic) [Example 93, (±)-1-Spiro[3.3]hept-2-yl-3-{1-[2-(2,2,2-trifluoro-ethoxy)-pyridin-4-yl]-ethyl}-urea], the 50% inhibitory concentration (IC50) is, setting by setting: under setting [1], 2.2 nM; under setting [2], 1.9 nM.

Regarding `O=C(NCc1cccc(S(=O)(=O)C(F)(F)F)c1)NC1CC2(CCC2)C1` [Example 42, 1-Spiro[3.3]hept-2-yl-3-(3-trifluoromethanesulfonyl-benzyl)-urea], the IC50 by setting is: under setting [1], 22 nM; under setting [2], 27 nM.

`O=C(NCc1cc(C(F)(F)F)ccc1F)NC1CC2(CCC2)C1` [Example 16, 1-(2-Fluoro-5-trifluoromethyl-benzyl)-3-spiro[3.3]hept-2-yl-urea]: the IC50 reads like this: under setting [1], 196 nM; under setting [2], 224 nM.

With `CC(NC(=O)NC1CC2(CCC2)C1)c1cccc(OCC(F)(F)F)c1Cl` (racemic) [Example 30, (±)-1-{1-[2-Chloro-3-(2,2,2-trifluoro-ethoxy)-phenyl]-ethyl}-3-spiro[3.3]hept-2-yl-urea], the half-maximal inhibitory concentration (IC50) under setting [1] is 269 nM and the half-inhibitory concentration (IC50) under setting [2] is 252 nM.

For `O=C(NC1CC2(CCC2)C1)NC(CO)c1cccc(C(F)(F)F)c1` (racemic) [Example 76, (±)-1-[2-Hydroxy-1-(3-trifluoromethyl-phenyl)-ethyl]-3-spiro[3.3]hept-2-yl-urea], the IC50 came to 17 nM under setting [1] and 19 nM under setting [2].

Regarding `O=C(NCc1cccc(C(F)(F)F)c1F)NC1CC2(CC2)C1` [Example 149, 1-(2-Fluoro-3-trifluoromethyl-benzyl)-3-spiro[2.3]hex-5-yl-urea], the IC50 worked out at 103 nM under setting [1] and 98 nM under setting [2].

As to `CC(NC(=O)NC1CC2(CC2)C1)c1cccc2c1OC(F)(F)O2` (racemic) [Example 121, (±)-1-[1-(2,2-Difluoro-benzo[1,3]dioxol-4-yl)-ethyl]-3-spiro[2.3]hex-5-yl-urea], the IC50 under setting [1] was found to be 1210 nM and the IC50 under setting [2] is 990 nM.

Turning to `CC(Oc1nccc(CNC(=O)NC2CC3(CCC3)C2)n1)C(F)(F)F` (single isomer, unassigned) [Example 180, 1-Spiro[3.3]hept-2-yl-3-[2-(-2,2,2-trifluoro-1-methyl-ethoxy)-pyrimidin-4-ylmethyl]-urea], the IC50 reads like this: under setting [4], 78 nM; under setting [3], 62 nM.

For the molecule `O=C(NCc1ccc(F)c(OCC(F)(F)F)c1)NC1CC2(CCC2)C1` [Example 114, 1-[4-Fluoro-3-(2,2,2-trifluoro-ethoxy)-benzyl]-3-spiro[3.3]hept-2-yl-urea], the concentration for half-maximal inhibition (IC50) is, setting by setting: under setting [1], 61 nM; under setting [2], 107 nM.

For `O=C(NC1CC2(CCC2)C1)N[C@H](c1cccc(C(F)(F)F)c1)C(F)(F)F` (single isomer, unassigned) [Example 178], the IC50 runs as follows: under setting [1], 11 nM; under setting [2], 16 nM.

Take `O=C(NC1CC2(CCC2)C1)NC(c1cccc(C(F)(F)F)c1)c1nc[nH]n1` (stereo not shown) [Example 56, 1-Spiro[3.3]hept-2-yl-3-[(1H-[1,2,4]triazol-3-yl)-(3-trifluoromethyl-phenyl)-methyl]-urea]: the half-inhibitory concentration (IC50) was 9.7 nM under setting [1] and 27 nM under setting [2].

On to `O=C(NCc1cccc(OC(F)(F)F)c1F)NC1CC2(CC2)C1` [Example 134, 1-(2-Fluoro-3-trifluoromethoxy-benzyl)-3-spiro[2.3]hex-5-yl-urea], for which the IC50 by setting is: under setting [1], 82 nM; under setting [2], 63 nM.

With `Cc1ccc(CNC(=O)NC2CC3(CCC3)C2)nc1OCC(F)(F)F` [Example 108, 1-[5-Methyl-6-(2,2,2-trifluoro-ethoxy)-pyridin-2-ylmethyl]-3-spiro[3.3]hept-2-yl-urea], the IC50 is, setting by setting: under setting [1], 279 nM; under setting [2], 205 nM.

As to `COc1c(OCC(F)(F)F)ncnc1C(C)NC(=O)NC1CC2(CC2)C1` (racemic) [Example 152, (±)-1-{1-[5-Methoxy-6-(2,2,2-trifluoro-ethoxy)-pyrimidin-4-yl]-ethyl}-3-spiro[2.3]hex-5-yl-urea], the IC50 is, setting by setting: under setting [1], 532 nM; under setting [2], 520 nM.

On to `O=C(NCc1cccc(S(F)(F)(F)(F)F)c1)NC1CC2(CCC2)C1` [Example 35, 1-(3-(pentafluoro-λ^6-sulfaneyl)benzyl)-3-(spiro[3.3]heptan-2-yl)urea], for which the IC50 came out at 24 nM under setting [1] and 22 nM under setting [2].

In the case of `O=C(NC1CC2(CCC2)C1)NC1(c2cccc(OC(F)F)c2)CC1` [Example 7, 1-[1-(3-Difluoromethoxy-phenyl)-cyclopropyl]-3-spiro[3.3]hept-2-yl-urea], the IC50 was 142 nM under setting [1] and 85 nM under setting [2].

Regarding `CC(NC(=O)NC1CC2(CC2)C1)c1ccnc(OC(F)F)c1` (racemic) [Example 139, (±)-1-[1-(2-Difluoromethoxy-pyridin-4-yl)-ethyl]-3-spiro[2.3]hex-5-yl-urea], the IC50 by setting is: under setting [1], 365 nM; under setting [2], 186 nM.

The IC50 is the concentration that inhibits the measured activity by half.
